≈ marks a conversion by molar mass, not a printed value. Where “and” joins values, the source holds several entries; their conditions need not be identical. Equal entries are not always repeated. Entries after “also recorded” stand apart in the source; their conditions may differ.

Results on one molecule are retold here after patent US4146622A, “Aziridinyl quinone anti-transplanted tumor agents” (priority 1977, dated 1979).

Data set [1] relates to lymphoid leukemia L1210. Put plainly: Intraperitoneal (IP) lymphoid leukemia L1210 transplanted mouse tumor test. The data set is classed as in vivo, murine. The source says:
^(a) Day 1-9 treatment schedule (9 injections)
^(b) Day 1,5,9 treatment schedule (3 injections)
^(c) Day 1 only treatment schedule (1 injection)
^(f) Percentage increase in life span of treated animals [(treated
survival .div. control survival) × 100%] - 100%

For data set [2], the system named is P388 lymphocytic leukemia. As to the kind of experiment: Intraperitoneal (IP) lymphocytic leukemia P388 transplanted mouse tumor test. The data set is classed as in vivo, murine.
Text: (§1) ^b Ip tumor implantation, ip QD1-9 treatment schedule.
(§2) The L1210, P388 and B16 test systems described in Table II utilize intraperitoneal (IP) tumor implantation and IP drug treatment while the Lewis lung system employs subcutaneous tumor implantation and IP treatment.
(§3) Aqueous saline solution (0.9%) was used as the drug vehicle. Normally, five doses were employed per experiment with the top dose chosen to produce toxicity. The lower doses were 50% of each preceeding dose.
(§4) Consistent with NCI antitumor test protocols, intraperitoneal (IP) administration of the drug was employed with all five tumor systems investigated. Tumor implantation was IP in the systems designated IP leukemia L1210 and P388 as well as B16 melanoma.
In data set [3] the test system is B16 melanocarcinoma. Put plainly: Intraperitoneal B16 melanocarcinoma transplanted mouse tumor test. The data set is classed as in vivo, murine. Conditions: Table IX; B16, QD1-9, at OD.
Text: as §1, §2, §3, §4
The test system of data set [4] is lymphoid leukemia L1210. As to the kind of experiment: Intracerebral (IC) lymphoid leukemia L1210 test. The data set is classed as in vivo, murine.
Data set [5] deals with ependymoblastoma. Put plainly: Intracerebral (IC) ependymoblastoma (EM) brain tumor test. The class given is in vivo, murine. To be noted: Table X, IC ependymoblastoma.
Data set [6] in a line: Room temperature water solubility. The data set is classed as physicochemical. Conditions: water; Table VII; room temperature, approximate; read-out: Approx. H2O Sol. The gist of the method: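 Water added incrementally by pipet, with shaking, to a weighed amount of compound at room temperature until dissolved; values are approximate.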
A short description of data set [7]: Octanol/H2O partition coefficient (log P). To be noted: octanol/water; Table VII; octanol/H2O. The data set is classed as physicochemical. The source says: ^(b) Octanol/H2 O values determined by C. Hansch and M. Yamakawa
In data set [8] the test system is IP ascites tumor systems (leukemia L1210 and P388). Put plainly: IP ascites tumor systems (leukemia L1210 and P388). The data set is classed as in vivo, murine.
Text: The criterion for minimum activity, %ILS, is defined here as follows: Intraperitoneal and intracerebral leukemia L1210 and intraperitoneal leukemia P388, 25%; intraperitoneal B16 melanoma and intracerebral ependymoblastoma, 40%. Consistent with NCI antitumor test protocols, intraperitoneal (IP) administration of the drug was employed with all five tumor systems investigated. Tumor implantation was IP in the systems designated IP leukemia L1210 and P388 as well as B16 melanoma. Intracerebral (IC) tumor implantation was utilized in the IC L1210 and ependymoblastoma tumor systems.
Where [9] appears, read: Table XI, per 6 test animals, day 30.

In general, logP refers to a log measure of how a compound divides between an organic and an aqueous phase. A low value points to lower lipophilicity. On to `O=C1C(N2CCN(CCO)CC2)=C(N2CC2)C(=O)C(N2CCN(CCO)CC2)=C1N1CC1` [Compound 47], for which the “OD (optimum dose)” value in data set [1] (Table VIII, IP L1210, Day 1 only (1 injection)) is 4.0 mg/kg/injection; in data set [1] (Table VIII, IP L1210, Q4D(1,5,9) (3 injections)) it was 4.0 mg/kg/injection and 2.0 mg/kg/injection; in data set [1] (Table VIII, IP L1210, QD1-9 (9 injections)), 1.0 mg/kg/injection and 0.5 mg/kg/injection; in data set [2] (Table IX, IP P388, QD1-9) it was 0.5 mg/kg/injection and 1.0 mg/kg/injection; in data set [4] (Table X, IC L1210, QD1-9) it was 2.0 mg/kg/injection and 1.5 mg/kg/injection; in data set [5] (QD1-5), 1.0 mg/kg/injection. In addition, the “animals alive per 6 test animals on day of termination” value in data set [1] (Table VIII, IP L1210, Q4D(1,5,9), at OD, day 30) was 3 and 4; in data set [1] (Table VIII, IP L1210, QD1-9, at OD, day 30), 1; in data set [2] (Table IX, IP P388, QD1-9, at OD, day 30), 3 and 6. For the same molecule, the “T - C (average weight change of test group minus control)” value in data set [1] (Table VIII, IP L1210, QD1-9, at OD, day 5) is -1.7 grams; in data set [4] (Table X, IC L1210, QD1-9, at OD, day 5) it was -1.4 grams. For the same molecule, in data set [1] (setting [9]), the “survivors (number in parentheses) IP L1210” value worked out at 3. Further, the “cures” value in data set [1] (survivors on day 30, L1210) is reported as “produced cures”; in data set [2] (P388, 30 day survivors, QD1-9), “multiple cures”. Further, the “antitumor activity” value in data set [2] (IP P388) was “very active”; in data set [4] (IC L1210), “marginal”; in data set [8], “most active; also recorded: superior”. The “ILS (percentage increase in life span)” value was 149% and 143% in data set [2] (Table IX, IP P388, QD1-9, at OD); 22% in data set [3]; 43% and 41% in data set [4] (Table X, IC L1210, QD1-9, at OD); 75% in data set [5] (QD1-5, at OD). Moreover, in data set [2] (setting [9]), the “survivors (number in parentheses) P388” value was 3. The solubility in data set [6] was 20 mg/mL (≈ 44.8 mM). Also, the logP in data set [7] was -0.75.
